In patent US20100022559A1, “BISOXIMES AS FUNGICIDES” (BAYER CROPSCIENCE AG, priority 2006, published 2010):
Where two headings read alike, the source gives them in different places. Blank lines part the entries; values can stand above or below the compound they belong to.

Experiment: logP determination by HPLC on a reversed-phase column (C 18), EEC Directive 79/831 Annex V.A8
Type: physicochemical
Settings: for chromatographic logP: reversed-phase HPLC column (C 18)
Method: The stated logP values were determined in accordance with EEC Directive 79/831 Annex V.A8 by HPLC (high performance liquid chromatography) on a reversed-phase column (C 18). Temperature: 43° C.

[1] = method marker [b], isomer A / isomer B / isomer mixture as noted in the cell
[2] = method marker [a] (footnote not shown), isomer A / isomer B / isomer mixture as noted in the cell

SMILES: C/C(=N\OCC1(CON)CC1)c1ccc(C)c(C)n1 [XII-8, (1E)-1-(5,6-dimethylpyridin-2-yl)ethanone O-({1-[(aminooxy)methyl]-cyclopropyl}methyl)oxime]
- chromatographic logP (HCO2H, HPLC reversed-phase column (C 18), 43° C., read-out: logP (HCO2H)): 0.73
- chromatographic logP ([a] acidic range, pH 2.3, 0.1% aqueous phosphoric acid and acetonitrile, read-out: logP): 0.53
- chromatographic logP ([b] LC-MS, acidic range, pH 2.7, 0.1% aqueous formic acid and acetonitrile, read-out: logP): 0.53
- chromatographic logP ([c] LC-MS, neutral range, pH 7.8, 0.001 molar aqueous ammonium bicarbonate solution and acetonitrile, read-out: logP): 2.44

SMILES: C=C(CON=C(C)c1cc(C(=O)OC)cc(C)n1)CON=C(C)c1cc(C(=O)OC)cc(C)n1 [compound 178]
- logP [1]: 5.46^[b]

SMILES: CC(=NOCC(C)(C)CON=C(C)c1cccc(C)n1)c1ccccc1 [compound 419]
- logP (value marked [b]): 5.42^[b]

SMILES: CC(=NOCC(C)CON=C(C)c1ccc2c(n1)CCCC2)c1ccc2c(n1)CCCC2 (centres unmarked) [Compound 304]
- logP (value marked [a]): 4.69^[a]

SMILES: Cc1cc(C)nc(/C(N)=N/OCc2ccc(CO/N=C(\N)c3nc(C)cc(C)n3)cc2)n1 [compound 702]
- logP (method marked [b] in Table 1): 2.11^[b]

SMILES: CCC(CC)(CON=C(C)c1nc(C)ccc1C)CON=C(C)c1nc(C)ccc1C [compound 882]
- logP (value marked [b]): 3.90^[b]
- logP (value marked [c]): 5.41^[c]

SMILES: CC(=NOCC(O)CON=C(C)c1cc(C)cc(C)n1)c1cc(C)cc(C)n1 (centres unmarked) [compound 560]
- logP (method marked [b] in Table 1): 1.22[b]
- logP (method marked [c] in Table 1): 3.68^[c]

SMILES: CC(=NOCC1(CON=C(C)c2cccc(C)n2)CC(c2ccccc2Cl)=NO1)c1cccc(C)n1 (centres unmarked) [compound 602]
- logP (method marked [b] in Table 1): 4.46^[b]

SMILES: COc1ccc(C)nc1C(C)=NOCC(C)CON=C(C)c1nc(C)ccc1OC (centres unmarked) [Compound 251]
- logP [1]: 2.04^[b]

SMILES: CC(=NOCC(C)CON=C(C)c1cccnc1C)c1cccnc1C (mixture of isomers) [compound 234]
- logP [2]: 1.22^[a]

SMILES: CC(=NOCCCON=C(C)c1ccc2c(n1)CCCC2)c1ccc2c(n1)CCCC2 [compound 305]
- logP (value marked [a]): 3.96^[a]

SMILES: CC(=NOCC(C)(C)CON=C(C)c1nccn1C)c1nccn1C [compound 576]
- logP (method marked [a] in Table 1): 1.07^[a]

SMILES: CC(=NOCC1(CON=C(C)c2cc(C)cc(C)n2)CC(CC(C)C)=NO1)c1cc(C)cc(C)n1 (centres unmarked) [compound 641]
- logP (method marked [b] in Table 1): 2.66^[b]

SMILES: CC(=NOCC1(CON=C(C)c2ccc(C)c(C)n2)CC(C(C)C)=NO1)c1ccc(C)c(C)n1 (centres unmarked) [compound 627]
- logP (method marked [b] in Table 1): 3.06^[b]

SMILES: CC(=NOCC(C)CON=C(C)c1cncc(C)c1)c1cncc(C)c1 (centres unmarked) [compound 166]
- logP [2]: 1.78^a]

SMILES: COc1cccc(C(C)=NOCCCCCCON=C(C)c2cccc(C)n2)c1 [compound 457]
- logP (value marked [b]): 5.59^[b]

SMILES: C=CCOC(C)(CON=C(C)c1cccc(C)n1)C(C)ON=C(C)c1cccc(C)n1 (centres unmarked) [compound 872]
- logP (value marked [a]): 6.13^[a]
- logP (value marked [b]): 6.13^[b]
- logP (value marked [c]): 6.96^[c]

SMILES: C=C(CON=C(C)c1ncccc1C)CON=C(C)c1ncccc1C [compound 65]
- logP [1]: 2.90^[b]

SMILES: CCc1cc(-c2ccccc2)cc(C(C)=NOCC(C)CON=C(C)c2cc(-c3ccccc3)cc(CC)n2)n1 (centres unmarked) [compound 692]
- logP (method marked [a] in Table 1): 7.36^[a]

SMILES: CC(=NOCC(C)(C)CON=C(C)c1cccc(C)n1)c1cccnc1 [compound 418]
- logP (value marked [b]): 2.80^[b]

SMILES: CC(=NOCC(C)CON=C(C)c1cc(C2CC2)cc(C)n1)c1cccc(C)n1 (centres unmarked) [compound 845]
- logP (value marked [a]): 3.21^[a]
- logP (value marked [c]): 6.40^[c]

SMILES: Cc1cccc(C=NOCCCON=Cc2cccc(C)n2)n1 [Compound 669]
- logP (method marked [b] in Table 1): 2.54^[b]

SMILES: CCC(=NOCCCCON=C(C)c1cccc(C)n1)c1cccc(C)n1 [compound 333]
- logP (value marked [b]): 4.10^[b]

SMILES: CCC1=NOC(CON=C(C)c2cccc(C)n2)(CON=C(C)c2cccc(C)n2)C1 (centres unmarked) [compound 594]
- logP (method marked [a] in Table 1): 2.68^[a]

SMILES: CC(=NOCC(C)(C)CON=C(CC(C)C)c1ncccc1C)c1cccc(C)n1 [compound 366]
- logP (value marked [b]): 5.97^[b]

SMILES: C=CCCC(=NOCC(C)CON=C(CCC=C)c1ncccc1C)c1ncccc1C (centres unmarked) [compound 130]
- logP [2]: 5.06^[a]

SMILES: CCCC(=NOCC(C)CON=C(C)c1cccc(C)n1)c1cccc(C)n1 (centres unmarked) [Compound 427]
- logP (value marked [b]): 5.31^[b]

SMILES: CC(=NOCC(CON=C(C)c1cccc(C)n1)C(C)C)c1cccc(C)n1 (centres unmarked) [Compound 680]
- logP (method marked [b] in Table 1): 5.03^[b]
- logP (method marked [c] in Table 1): 6.40^[c]

SMILES: CC(=NOCC(C)CON=C(C)c1cccc(C(F)F)n1)c1cccc(C(F)F)n1 (centres unmarked) [compound 306]
- logP (value marked [a]): 5.49^[a]

SMILES: CC(=NOCCON=C(C)c1ccncc1)c1ccncc1 [compound 28]
- logP [1]: 0.66^[b]

SMILES: N/C(=N\OCc1ccc(CO/N=C(\N)c2ncc(F)cc2F)cc1)c1ncc(F)cc1F [compound 719]
- logP (method marked [b] in Table 1): 2.96^[b]

SMILES: CC(=NOCC(C)CON=C(C)c1ccnc(C)n1)c1cccc(C)n1 (centres unmarked) [compound 430]
- logP (value marked [b]): 3.56^[b]

SMILES: C=C(CON=C(C)c1cccc(C)n1)CON=C(CC)c1ncccc1C (single isomer, unassigned) [compound 142]
- logP [1]: 3.84^[b] (isomer )B

SMILES: CCC(=NOCC(C)CON=C(CC)c1cccc(CC)n1)c1cccc(CC)n1 (mixture of isomers) [compound 263]
- logP (value marked [b]): 6.33^[b]

SMILES: C=C(CON=C(CC)c1cccc(CC)n1)CON=C(CC)c1cccc(CC)n1 [Compound 265]
- logP (value marked [b]): 7.08^[b]

SMILES: CCCC(=NOCCON=C(CCC)c1cccc(C)n1)c1cccc(C)n1 [compound 226]
- logP [2]: 5.18^[a]

SMILES: C=C(CON=C(C)c1ccccc1)CON=C(C)c1cccc(C)n1 [compound 408]
- logP (value marked [b]): 4.51^[b]

SMILES: C=C(CON=C(C)c1cccc(C)n1)CON=C(N)c1cc(C)cc(C)n1 [Compound 189]
- logP [1]: 2.92^[b]

SMILES: Cc1cccc(C(=NOCC2(CON=C(c3cccc(C)n3)C3CC3)CC(c3cccc(Cl)c3)=NO2)C2CC2)n1 (centres unmarked) [compound 655]
- logP (method marked [a] in Table 1): 4.54^[a]

SMILES: CC(=NOCC(C)CON=C(C)c1cccc(C(C)C)n1)c1cccc(C(C)C)n1 (centres unmarked) [Compound 229]
- logP [2]: 7.36^[a]

SMILES: C=C(CON=C(C)c1cccc(C)n1)CON=C(C)c1nc(C)cc(C)n1 [Compound 188]
- logP [1]: 2.69^[b]

SMILES: CC(=NOCC(C)(C)CON=C(c1ccccc1)c1cccc(C)n1)c1cccc(C)n1 [Compound 371]
- logP (value marked [b]): 4.51^[b]

SMILES: C=C(CON=C(C)c1cccc(C(F)(F)F)c1)CON=C(C)c1cccc(C)n1 [compound 399]
- logP (value marked [b]): 5.36^[b]

SMILES: CC(=NOCC(C)CON=C(C)c1cccc(CC(C)C)n1)c1cccc(C)n1 (centres unmarked) [Compound 423]
- logP (value marked [b]): 6.51^[b]

SMILES: C=C(CON=C(C)c1cccc(C)n1)CON=C(C)c1cc(C)cc(C)n1 [Compound 474]
- logP (value marked [b]): 2.55^[b]

SMILES: CC(=NOCC(C)CON=C(C)c1ccccc1Cl)c1cccc(C)n1 (centres unmarked) [compound 436]
- logP (value marked [b]): 5.08^[b]

SMILES: CC(=NOCC(C)CON=C(C)c1cccnc1Cl)c1cccnc1Cl (mixture of isomers) [compound 107]
- logP [2]: 3.87^[a]

SMILES: C=C(CON=C(C)c1cccn1C)CON=C(C)c1cccn1C [compound 21]
- logP [1]: 5.03^[b]

Other lines, results leading:

- logP [1]: 2.20^[b]
SMILES: CC(=NOCC(=O)CON=C(C)c1cccc(C)n1)c1cccc(C)n1 [compound 71]

- logP (value marked [b]): 6.09^[b]
SMILES: CC(=NOCC(C)CON=C(C)c1cccc(Cc2ccccc2)n1)c1cccc(C)n1 (centres unmarked) [Compound 420]

- logP (value marked [b]): 1.31^[b]
- logP (value marked [c]): 2.67^[c]
SMILES: CC(=NOCC(C)CON=C(C)c1cc(CO)cc(C)n1)c1cc(CO)cc(C)n1 (centres unmarked) [compound 868]

- logP [1]: 1.73^[b]
SMILES: C=C(CON=C(C)c1cccc(C)n1)CON=C(N)c1nccc(C)n1 [compound 187]

- logP (method marked [b] in Table 1): 2.39^[b]
- logP (method marked [c] in Table 1): 6.63^[c]
SMILES: CC(=NOC(C)CC(C)ON=C(C)c1cc(C)cc(C)n1)c1cc(C)cc(C)n1 (centres unmarked) [Compound 557]

- logP (value marked [b]): 5.36^[b]
SMILES: CC(=NOCC(C)CON=C(C)c1ccc(Cl)s1)c1cccc(C)n1 (centres unmarked) [compound 498]

- logP (method marked [b] in Table 1): 3.12^[b]
- logP (method marked [c] in Table 1): 7.09^[c]
SMILES: CC(=NOCC(CON=C(C)c1cc(C)cc(C)n1)C(C)C)c1cc(C)cc(C)n1 (centres unmarked) [Compound 682]

- logP (value marked [a]): 1.84^[a]
SMILES: CC(=NOCCCON=C(C)c1nc(C)c(C)cc1C)c1nc(C)c(C)cc1C [compound 256]

- logP (value marked [b]): 5.19^[b]
SMILES: CC(=NOCCCCON=C(C)c1cccc2ccccc12)c1cccc(C)n1 [compound 383]

- logP (method marked [b] in Table 1): 2.63^[b]
- logP (method marked [c] in Table 1): 6.17^[c]
SMILES: CC(=NOCC(C)CON=C(C)c1ccc(C)c(C)n1)c1cc(C)cc(C)n1 (racemic) [Compound 694]

- logP (method marked [b] in Table 1): 3.40^[b]
- logP (method marked [c] in Table 1): 5.07^[c]
SMILES: CC(=NOCC(CON=C(C)c1nc(C)ccc1C)Cc1ccccc1)c1cccc(C)n1 (centres unmarked) [compound 591]

- logP (value marked [a]): 4.60^[a]
SMILES: CC(=NOC1CCC(ON=C(C)c2cccc(C)n2)C1)c1cccc(C)n1 (mixture of isomers) [compound 797]

- logP (value marked [b]): 6.36^[b]
SMILES: CCCc1cccc(C(C)=NOCC(C)(C)CON=C(C)c2cccc(C)n2)n1 [compound 489]

- logP (method marked [a] in Table 1): 2.05^[a]
SMILES: CC(=NOCC(C)CON=C(C)c1nc2ccccc2[nH]1)c1nc2ccccc2[nH]1 (mixture of isomers) [compound 584]

- logP (value marked [a]): 1.5^[a]
- logP (value marked [c]): 5.79^[c]
SMILES: COc1cc(C)nc(C(C)=NOCC(C)(C)CON=C(C)c2cc(OC)cc(C)n2)c1 [Compound 840]

- logP [1]: 3,57^[b]
SMILES: C=C(CON=C(C)c1c(C)noc1C)CON=C(C)c1c(C)noc1C [compound 25]

- logP (method marked [b] in Table 1): 5.09^[b]
- logP (method marked [c] in Table 1): 6.38^[c]
SMILES: CC(=NOCC(CON=C(C)c1nc(C)ccc1C)C(C)(C)C)c1nc(C)ccc1C (single isomer, unassigned) [compound 757]

- logP (value marked [b]): 5.33^[b]
- logP (value marked [c]): 5.44^[c]
SMILES: C#CCOc1ccc(C(C)=NOCC(C)CON=C(C)c2ccc(OCC#C)c(C)n2)nc1C (centres unmarked) [Compound 867]

- logP (method marked [b] in Table 1): 2.20^[b]
SMILES: CC1=NOC(CON=C(C)c2cccc(C)n2)(CON=C(C)c2cccc(C)n2)C1 (centres unmarked) [compound 596]

- logP (method marked [b] in Table 1): 4.56^[b]
SMILES: CCCC(=NOCC1(CON=C(CCC)c2cccc(C)n2)CC(C)=NO1)c1cccc(C)n1 (centres unmarked) [compound 615]

- logP [2]: 6.95^[a]
SMILES: CC(=NOCCCON=C(C)c1cccc(Cc2ccccc2)n1)c1cccc(Cc2ccccc2)n1 [Compound 131]
